In the NIST ThermoML archive (doi:10.1007/s10765-005-8590-7):

Assay: xn = mol fraction of the nth substance listed
Conditions: Fluid (supercritical or subcritical phases), Constant-volume piezometry

N [ammonia] + O
Conditions	mass density [kg/m3]
269.14 K, 2812.6 kPa, x1 = 0.1086	963.53
269.14 K, 5179.9 kPa, x1 = 0.0644	979.78
269.15 K, 1141.1 kPa, x1 = 0.1436	952.26
269.15 K, 4001.7 kPa, x1 = 0.0999	970.97
269.15 K, 8192.6 kPa, x1 = 0.064	980.19
269.15 K, 8194.7 kPa, x1 = 0.064	980.19
269.17 K, 15892 kPa, x1 = 0.047	989.66
269.18 K, 4424 kPa, x1 = 0.0955	968.23
269.19 K, 2364.1 kPa, x1 = 0.0582	979.69
269.2 K, 5071.6 kPa, x1 = 0.1386	955.44
270.13 K, 15862 kPa, x1 = 0.047	989.62
270.14 K, 4346.8 kPa, x1 = 0.0302	991.12
270.15 K, 1609 kPa, x1 = 0.1436	952.18
270.15 K, 7195.1 kPa, x1 = 0.0513	984.77
270.15 K, 15862 kPa, x1 = 0.047	989.62
270.99 K, 16062 kPa, x1 = 0.0606	986.82
271.11 K, 15856 kPa, x1 = 0.047	989.57
271.12 K, 467.5 kPa, x1 = 0.0591	975.44
271.13 K, 15857 kPa, x1 = 0.047	989.57
271.14 K, 3349.5 kPa, x1 = 0.1086	963.41
271.15 K, 2091.5 kPa, x1 = 0.1436	952.11
271.15 K, 3960.4 kPa, x1 = 0.014	996.21
271.15 K, 7177.2 kPa, x1 = 0.0513	984.72
271.15 K, 8265.9 kPa, x1 = 0.064	980.1
271.16 K, 4437.7 kPa, x1 = 0.0999	970.85
271.17 K, 4208.2 kPa, x1 = 0.0302	991.09
271.17 K, 5274.3 kPa, x1 = 0.0644	979.69
271.18 K, 2339.7 kPa, x1 = 0.0582	979.6
271.18 K, 4814.2 kPa, x1 = 0.0955	968.12
272.15 K, 3778.7 kPa, x1 = 0.014	996.18
272.15 K, 4113.5 kPa, x1 = 0.0302	991.05
272.15 K, 7185.7 kPa, x1 = 0.0513	984.68
272.15 K, 15879 kPa, x1 = 0.047	989.53
273.13 K, 4952 kPa, x1 = 0.0999	970.74
273.14 K, 506.6 kPa, x1 = 0.0591	975.35
273.14 K, 4040.3 kPa, x1 = 0.0302	991.01
273.14 K, 16263 kPa, x1 = 0.0606	986.71
273.15 K, 2431.2 kPa, x1 = 0.0582	979.51
273.15 K, 3104.4 kPa, x1 = 0.1436	951.96
273.15 K, 3633.6 kPa, x1 = 0.014	996.14
273.15 K, 3634.2 kPa, x1 = 0.014	996.14
273.15 K, 3935 kPa, x1 = 0.1086	963.29
273.15 K, 7219.4 kPa, x1 = 0.0513	984.63
273.15 K, 8435.9 kPa, x1 = 0.064	980.01
273.17 K, 15928 kPa, x1 = 0.047	989.48
274.14 K, 16000 kPa, x1 = 0.047	989.44
274.15 K, 3992.2 kPa, x1 = 0.0302	990.97
274.15 K, 7279.5 kPa, x1 = 0.0513	984.59
274.99 K, 16547 kPa, x1 = 0.0606	986.61
275.08 K, 7892.7 kPa, x1 = 0.1386	955.03
275.13 K, 677.5 kPa, x1 = 0.0591	975.25
275.14 K, 2612.8 kPa, x1 = 0.0582	979.41
275.15 K, 3430.4 kPa, x1 = 0.014	996.07
275.15 K, 3431.2 kPa, x1 = 0.014	996.07
275.15 K, 3970.2 kPa, x1 = 0.0302	990.93
275.15 K, 4178.5 kPa, x1 = 0.1436	951.81
275.15 K, 4633.1 kPa, x1 = 0.1086	963.16
